Source: patent US4001218A, “Penicillins” (Bayer Aktiengesellschaft, priority 1972, dated 1977)

Tests used:
[1] = test system: Enterobacter sp.; experiment: turbidity test at 100 μg/ml; assay type: cell-based; settings: 24 hours
[2] = test system: Serratia sp.; experiment: turbidity test at 100 μg/ml; assay type: cell-based; settings: 24 hours
[3] = test system: Aeromonas hydrophila sp.; experiment: turbidity test at 100 μg/ml; assay type: cell-based; settings: 24 hours
[4] = test system: E. coli 14; experiment: turbidity test at 100 μg/ml; assay type: cell-based; settings: 24 hours
[5] = test system: Klebsiella 62; experiment: animal experiment, Klebsiella 62 infection; settings: s.c. 2 × 3000 Units per animal, experiment with Ex.1
[6] = test system: Klebsiella 63; experiment: MIC, test tube series dilution test, Klebsiella 63; assay type: cell-based; settings: Klebsiella 63; 24 hours, 37°C
[7] = test system: Psdm. aerug. F 41; experiment: MIC, test tube series dilution test, Psdm. aerug. F 41; assay type: cell-based, Pseudomonas aeruginosa; settings: Psdm. aerug. F 41; 24 hours, 37°C
[8] = test system: Lactobacillus sp.; experiment: turbidity test at 100 μg/ml; assay type: cell-based; settings: 24 hours
[9] = test system: Klebsiella 63; experiment: turbidity test at 100 μg/ml; assay type: cell-based; settings: 24 hours
[10] = test system: Streptococcus pyogenes W; experiment: turbidity test at 100 μg/ml; assay type: cell-based; settings: 24 hours
[11] = test system: Shigella sp.; experiment: turbidity test at 100 μg/ml; assay type: cell-based
[12] = test system: Pseudomonas aeruginosa sp.; experiment: turbidity test at 100 μg/ml; assay type: cell-based; settings: 24 hours
[13] = test system: Pasteurella pseudotuberculosis; assay type: cell-based; settings: 100 μg/ml, 24 hours
[14] = test system: Haemophilus influenzae; experiment: turbidity test at 100 μg/ml; assay type: cell-based; settings: 24 hours
[15] = test system: Bordetella bronchiseptica; experiment: turbidity test at 100 μg/ml; assay type: cell-based; settings: 24 hours
[16] = test system: E. Coli c165; experiment: turbidity test at 100 μg/ml; assay type: cell-based; settings: 24 hours
[17] = test system: Corynebacterium pyogenes M; experiment: turbidity test at 100 μg/ml; assay type: cell-based; settings: 24 hours
[18] = test system: Proteus vulgaris 1017; experiment: turbidity test at 100 μg/ml; assay type: cell-based; settings: 24 hours
[19] = test system: Proteus morg. 932; experiment: MIC, test tube series dilution test, Proteus morg. 932; assay type: cell-based; settings: 24 hours, 37°C
[20] = test system: Staph. aureus 1756; experiment: MIC, test tube series dilution test, Staph. aureus 1756; assay type: cell-based, Staphylococcus aureus; settings: Staph. aureus 1756; 24 hours, 37°C
[21] = test system: Enterococcus sp.; experiment: turbidity test at 100 μg/ml; assay type: cell-based; settings: 24 hours
[22] = test system: Staph. aureus 133; assay type: cell-based, Staphylococcus aureus; settings: Staph. aureus 133; 24 hours, 37°C
[23] = test system: Clostridium botulinium; assay type: cell-based
[24] = test system: E. coli 14; assay type: cell-based; settings: E. coli 14; 24 hours, 37°C
[25] = test system: Corynebacterium diphteriae gravis; experiment: turbidity test at 100 μg/ml; assay type: cell-based; settings: 24 hours
[26] = test system: Staphylococcus aureus 133; experiment: turbidity test at 100 μg/ml; assay type: cell-based; settings: 24 hours
[27] = test system: Klebsiella K 10; experiment: MIC, test tube series dilution test, Klebsiella K 10; assay type: cell-based; settings: 24 hours, 37°C
[28] = test system: Enterococcus 9790; experiment: MIC, test tube series dilution test, Enterococcus 9790; assay type: cell-based; settings: 24 hours, 37°C
[29] = test system: Salmonella sp.; experiment: turbidity test at 100 μg/ml; assay type: cell-based
[30] = test system: Diplococcus pneumoniae sp.; experiment: turbidity test at 100 μg/ml; assay type: cell-based; settings: 24 hours
[31] = test system: Clostridium tetani; assay type: cell-based; settings: 100 μg/ml, 24 hours
[32] = test system: Psdm. aerug. Walter; experiment: MIC, test tube series dilution test, Psdm. aerug. Walter; assay type: cell-based, Pseudomonas aeruginosa; settings: Psdm. aerug. Walter; 24 hours, 37°C
[33] = test system: E. coli 183/58; experiment: MIC, test tube series dilution test, E. coli 183/58; assay type: cell-based; settings: 24 hours, 37°C
[34] = test system: E. coli C 165; experiment: MIC, test tube series dilution test, E. coli C 165; assay type: cell-based; settings: 24 hours, 37°C
[35] = test system: Proteus, indole-negative, sp.; experiment: turbidity test at 100 μg/ml; assay type: cell-based; settings: 24 hours
[36] = test system: Neisseria cartarrhalis sp.; experiment: turbidity test at 100 μg/ml; assay type: cell-based; settings: 24 hours
[37] = test system: Klebsiella K 10; experiment: turbidity test at 100 μg/ml; assay type: cell-based; settings: 24 hours
[38] = test system: E. coli A 261; experiment: MIC, test tube series dilution test, E. coli A 261; assay type: cell-based; settings: 24 hours, 37°C
[39] = test system: Brucella sp.; assay type: cell-based; settings: 100 μg/ml, 24 hours
[40] = test system: Proteus, indole-positive, sp.; experiment: turbidity test at 100 μg/ml; assay type: cell-based; settings: 24 hours
[41] = test system: Borrelia sp.; experiment: turbidity test at 100 μg/ml; assay type: cell-based; settings: 24 hours
[42] = test system: Bacteroides sp.; experiment: turbidity test at 100 μg/ml; assay type: cell-based; settings: 24 hours
[43] = test system: Proteus vulg. 1017; assay type: cell-based, Proteus vulgaris; settings: Proteus 1017; 24 hours, 37°C

CC1(C)S[C@@H]2[C@H](NC(=O)[C@H](NC(=O)c3ccc(NC(=O)C4CC4)cc3)c3ccccc3)C(=O)N2[C@H]1C(=O)O [Example 1, sodium D(-)-α-(4-cyclopropanecarbonylamino-benzoylamino)-benzylpenicillin]
degree of turbidity [1]: non-turbid | degree of turbidity [2]: non-turbid | degree of turbidity [3]: non-turbid | degree of turbidity [4]: non-turbid | Surviving animals ([5]; 1st day after infection): 100% | Surviving animals ([5]; 2nd day after infection): 100% | Surviving animals ([5]; 3rd day after infection): 50% | Surviving animals ([5]; 5th day after infection): 50% | MIC [6]: 64 U/ml | MIC [7]: 32 U/ml | degree of turbidity [8]: non-turbid | degree of turbidity [9]: non-turbid | degree of turbidity [10]: non-turbid | degree of turbidity [11]: non-turbid | degree of turbidity [12]: non-turbid | degree of turbidity [13]: non-turbid | degree of turbidity [14]: non-turbid | degree of turbidity [15]: non-turbid | degree of turbidity [16]: non-turbid | degree of turbidity [17]: non-turbid | degree of turbidity [18]: non-turbid | MIC [19]: 8 U/ml | MIC [20]: 64 U/ml | degree of turbidity [21]: non-turbid | MIC [22]: < 1 U/ml | degree of turbidity [23]: non-turbid | MIC [24]: 4 U/ml | degree of turbidity [25]: non-turbid | degree of turbidity [26]: non-turbid | MIC [27]: 64 U/ml | MIC [28]: ~ 8 U/ml | degree of turbidity [29]: non-turbid | degree of turbidity [30]: non-turbid | degree of turbidity [31]: non-turbid | MIC [32]: 16 U/ml | MIC [33]: 16 U/ml | MIC [34]: 16 U/ml | degree of turbidity [35]: non-turbid | degree of turbidity [36]: non-turbid | degree of turbidity [37]: non-turbid | MIC [38]: > 256 U/ml | degree of turbidity [39]: non-turbid | degree of turbidity [40]: non-turbid | degree of turbidity [41]: non-turbid | degree of turbidity [42]: non-turbid | MIC [43]: < 32 U/ml
